Where two headings read alike, the source gives them in different places.
Key:
[1] = system: pentobarbital-anesthetized dog; test: In Vivo Myocardial Inotropic Activity in Anesthetized Dog (CVAD); parameters: species or system dog (adult mongrel); details: for change in vivo at 0.1 mg/kg / change in vivo at 0.3 mg/kg / change in vivo at 1 mg/kg / change in vivo at 3.1 mg/kg / change in vivo at 10 mg/kg / change in vivo at 0.31 mg/kg: Canis lupus familiaris, iv; for change in vivo at 0.3 mg/kg: 0.30 mg/kg IV; for change in vivo at 3.1 mg/kg: 3.10 mg/kg IV; for change in vivo at 10 mg/kg: 10.00 mg/kg IV
Method: This test procedure is described in the following paragraphs.
This screen consists of determining the effects of increasing intravenous doses of compound on mycardial contractility (dP/dt max of left ventricular blood pressure), heart rate, and aortic blood pressure of the pentobarbital-anesthetized dog.
Adult mongrel dogs of either sex are anesthetized with pentobarbital, 35 mg/kg, IV, and are subsequently maintained under anesthesia with a continuous infusion of pentobarbital, 3.5 mg/kg/hour. The trachea is intubated but the animals are permitted to breathe spontaneously. A cannula is inserted into the femoral vein for administrating test agents. A Millar catheter tip pressure transducer or a fluid filled catheter is inserted into the ascending aorta via the femoral artery for measuring aortic blood pressure. A Millar catheter tip pressure transducer is passed into the left ventricle via the left carotid artery for measuring left ventricular blood pressure. Needle electrodes are placed subcutaneously for recording a lead II electrocardiogram (ECG).
Left ventricular and aortic blood pressures are recorded on a strip chart recorder. Heart rate, using a biotachometer triggered from the R wave of the ECG, and the first derivative of left ventricular blood pressure (dP/dt), obtained with a differentiator amplifier coupled to the corresponding pressure amplifier, are also recorded. A period of at least 30 minutes is utilized to obtain control data prior to administration of test compound.
Ethanol or dimethylacetamide can be used as solvents if adequate dilutions can be made. Appropriate vehicle controls are administered when needed.
Each dose of the test compound is administered in a volume of […] over a period of one minute.

[2] = target: T1, adenosine A1 receptor (Rattus norvegicus, UniProt P25099); test: Adenosine Receptor Binding - A1 Receptor Affinity (RBA1), [3H]-N6-cyclohexyladenosine displacement; details: [3H]-CHA 1.0 nM, rat brain membranes, 25° C., one hour; read-out: RBA-1, IC50 for adenosine A1 receptor affinity
T1 construct: Whole brain minus cerebellum and brainstem from male Long Evans rats; from tissue; host or cells: whole brain minus cerebellum and brainstem, male Long Evans rats (membranes)
T1 sequence (P25099 1-326): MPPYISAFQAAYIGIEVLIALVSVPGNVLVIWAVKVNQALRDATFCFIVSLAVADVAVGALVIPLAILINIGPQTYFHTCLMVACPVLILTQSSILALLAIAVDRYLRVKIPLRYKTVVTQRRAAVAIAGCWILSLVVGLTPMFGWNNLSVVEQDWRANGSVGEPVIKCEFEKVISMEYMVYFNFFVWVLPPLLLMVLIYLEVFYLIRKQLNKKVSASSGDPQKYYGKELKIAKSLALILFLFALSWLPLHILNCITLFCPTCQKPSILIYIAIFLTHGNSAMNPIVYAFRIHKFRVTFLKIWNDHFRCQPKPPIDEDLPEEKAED
Method: Whole brain minus cerebellum and brainstem from male Long Evans rats (150-200 g) was homogenized in 30 volumes of ice-cold 0.05M Tris-HCl buffer pH 7.7 using a Brinkman Polytron PT-10, (setting number 6 for 20 seconds) and centrifuged for ten minutes at 20,000×g (Sorvall RC-2), 4° C. The supernatant was discarded, and the pellet was resuspended and centrifuged as before. […] The homogenate was again centrifuged, and the final pellet was resuspended in ice-cold 0.05 M Tris-HCl buffer pH 7.7 to a concentration of 20 mg/ml original wet tissue weight and used immediately. […] Incubation volume was 2 ml. […] The filters were rinsed three times with 5 ml of ice cold 0.05 M Tris-HCl buffer pH 7.7. The radio-labeled ligand retained on the filter was measured by liquid scintillation spectrophotometry after shaking the filters for one hour or longer on a mechanical shaker in 10 ml of Beckman Ready-Solv HP scintillation cocktail. […] The Hill coefficient was calculated by linear regression of the line obtained by plotting the log of the bound radioligand vs the log of the [formula] The maximal number of binding sites (Bmax) was calculated from the Scatchard plot.

[3] = system: Type 3 Phosphodiesterase; test: Phosphodiesterase (PDE) Inhibition, Type 3 Phosphodiesterase; assay type: biochemical, bovine (coronary arteries); details: Type 3 PDE, at 10^-5 M, substrate 3H-cAMP 1.0 μM
Text: (§1) The method of Thompson, et al (Thompson, W. J., Terasaki, W. L., Epstein, P. M., Strada, S. J., Adv. Cyclic Nucleotide Res., 10:69-92, 1979), with minor modifications, was used to isolate phosphodiesterases from vascular smooth muscle. Bovine coronary arteries (right, anterior descending, and left circumflex arteries) from hearts obtained from a local slaughterhouse were used for these studies. Arteries from two hearts were used for each isolation. Hearts were kept on ice and the arteries were dissected within two hours after the animals were sacrificed. After removing all fat and connective tissue, the arteries were everted, cut into cubes with a single edge razor blade and homogenized with a Brinkman Polytron three times at a rheostat setting of 10.0 in four volumes of the PDE isolation buffer (10 mM Tris-HCl/pH 7.5, 2 mM MgCl2, and 1 mM dithiothreitol). The resulting homogenate was sonicated (30 sec/ml homogenate) and then centrifuged at 30,000 xg for 20 minutes. This and all subsequent procedures were performed at 4° C. The resulting supernatant was filtered through four layers of gauze, and applied to a DEAE-cellulose column (30×1.5 cm), prepared as described by Cheung (Cheung, W. Y., Biochim. Biophys. Acta, 191:303-315, 1969), and equilibrated with freshly prepared 70 mM sodium acetate/5 mM 2-mercaptoethanol (pH 6.5). The column was then washed with 2-3 bed volumes of sodium acetate/2-mercaptoethanol, after which the phosphodiesterases were eluted from the column using a continuous 70-1,000 mM sodium acetate gradient (pH 6.5, containing 5 mM 2-mercaptoethanol; total volume 400 ml). The flow rate was approximately equal to 25 ml/hr. Eight ml fractions were collected and assayed for cyclic AMP- and cyclic GMP-phosphodiesterase activity in the presence and absence of 0.1 units of calmodulin and 10 mM CaCl2. Appropriate fractions were pooled and dialyzed against 70 mM sodium acetate/5 mM 2-mercaptoethanol for 20 hours.
(§2) Following complete separation, the combined phosphodiesterase fractions were concentrated to 14% of the original volume using an Amicon ultrafiltration cell fitted with a UM-10 membrane, according to the method of Wells, et al (Wells, J. N., Baird, C. E., Wu, Y. J., Hardman, J. G., Biochim. Biophys. Acta, 384:430-442, 1975). Following concentration, the protein was then diluted to 65% with ethylene glycol monoethyl ether, and stored at -20° C.
(§3) Phosphodiesterase activity was measured as described previously (Weishaar, P. E., Quade, M., Boyd, D., Schenden, J., Mark, S. S., Kaplan, H. R., Drug Devel. Res., 3:517-534, 1983), in a reaction medium containing 40 mM Tris-HCl (pH 8.0), 5 mM MgCl and 4 mM 2-mercaptoethanol. Unless otherwise noted, the concentration of substrate (^3 H-cyclic AMP or ^3 H-cyclic GMP) was 1.0 μM. All agents examined were dissolved in dimethyl sulfoxide (DMSO). Final concentration of the reaction medium was either 2.5% (cardiac and platelet studies) or 1.25% (smooth muscle studies). This concentration of DMSO produced an approximately 10% inhibition of enzyme activity.

[4] = system: Type 1 Phosphodiesterase; test: Phosphodiesterase (PDE) Inhibition, Type 1 Phosphodiesterase; assay type: biochemical, bovine (coronary arteries); details: Type 1 PDE, at 10^-5 M; for % Inhibition of hydrolysis of 3H-cAMP: substrate 3H-cAMP 1.0 μM; for % Inhibition of hydrolysis of 3H-cGMP: substrate 3H-cGMP 1.0 μM
Text: as §1, §2, §3

[5] = 0.10 mg/kg IV, read-out: Percent Change Blood Pressure
[6] = 0.10 mg/kg IV, read-out: Percent Change Heart Rate
[7] = 0.10 mg/kg IV, read-out: Percent Change Myocardial Contractility
[8] = read-out: Percent Change Blood Pressure
[9] = read-out: Percent Change Heart Rate
[10] = read-out: Percent Change Myocardial Contractility
[11] = 1.00 mg/kg IV, read-out: Percent Change Blood Pressure
[12] = 1.00 mg/kg IV, read-out: Percent Change Heart Rate
[13] = 1.00 mg/kg IV, read-out: Percent Change Myocardial Contractility

Row | IC50 [2] | % Inhibition of hydrolysis of 3H-cAMP [3] | % Inhibition of hydrolysis of 3H-cAMP [4] | % Inhibition of hydrolysis of 3H-cGMP [4] | SMILES | change in vivo at 0.1 mg/kg [1, 5] | change in vivo at 0.1 mg/kg [1, 6] | change in vivo at 0.1 mg/kg [1, 7] | change in vivo at 0.3 mg/kg [1, 8] | change in vivo at 0.3 mg/kg [1, 9] | change in vivo at 0.3 mg/kg [1, 10] | change in vivo at 1 mg/kg [1, 11] | change in vivo at 1 mg/kg [1, 12] | change in vivo at 1 mg/kg [1, 13] | change in vivo at 3.1 mg/kg [1, 8] | change in vivo at 3.1 mg/kg [1, 9] | change in vivo at 3.1 mg/kg [1, 10] | change in vivo at 10 mg/kg [1, 10] | other results
1 | 1200 nM | 50% | 30% | 18% | Cc1nn(C)c2c(=O)[nH]c(-c3cccc([N+](=O)[O-])c3)nc12 [Example 13, 1,3-Dimethyl-5-(3-nitrophenyl)pyrazolo[4,3-d]pyrimidine-7-one] | -2% | 2% | 6% | -4% | 4% | 5% | -7% | -3% | -7% | -12% | -3% | 6% | 101% | –
2 | 417 nM | 15% | 14% | 15% | Cc1ccc(-c2nc3c(C)nn(C)c3c(=O)[nH]2)cc1 [Example 8, 1,3-Dimethyl-5-(4-methylphenyl)pyrazolo[4,3-d]pyrimidine-7-one] | -1% | 5% | 7% | 0% | 5% | 10% | 3% | 6% | 20% | 3% | 10% | 22% | 82% | –
3 | 237 nM | 55% | 33% | 19% | CCn1nc(C)c2nc(-c3ccncc3)[nH]c(=O)c21 [Example 3, 1-Ethyl-3-methyl-5-(4-pyridyl)pyrazolo[4,3-d]pyrimidine-7-one] | 2% | 4% | 12% | 2% | 7% | 20% | 2% | -1% | 47% | 8% | 16% | 91% | – | –
4 | 385 nM | 32% | 19% | 15% | Cc1nn(C)c2c(=O)[nH]c(-c3ccc(N)cc3)nc12 [Example 11, 1,3-Dimethyl-5-(4-aminophenyl)pyrazolo[4,3-d]pyrimidine-7-one] | – | 1% | 9% | – | – | – | – | 5% | 25% | – | 15% | 66% | – | Percent Change Blood Pressure ([1]; 0.10 mg/kg IV): 1/1; Percent Change Blood Pressure ([1]; 0.31 mg/kg IV): 5/3; Percent Change Blood Pressure ([1]; 1.00 mg/kg IV): 1/0; change in vivo at 0.31 mg/kg ([1]; 0.31 mg/kg IV, read-out: Percent Change Heart Rate): 3%; change in vivo at 0.31 mg/kg ([1]; 0.31 mg/kg IV, read-out: Percent Change Myocardial Contractility): 17%
5 | 670 nM | 56% | 29% | 29% | CCn1nc(C)c2nc(-c3ccccc3)[nH]c(=O)c21 [Example 5, 1-Ethyl-3-methyl-5-phenylpyrazolo[4,3-d]pyrimidine-7-one] | 2% | 7% | 10% | – | – | – | 1% | 43% | 77% | 1% | 50% | 100% | – | –
6 | 8500 nM | 7% | 7% | 5% | Cc1nn(C)c2c(=O)[nH]c(-c3ccc(Cl)cc3[N+](=O)[O-])nc12 [Example 18, 1,3-Dimethyl-5-(2-nitro-4-chlorophenyl)pyrazolo-[4,3-d]pyrimidine-7-one] | – | – | – | – | – | – | – | – | – | – | – | – | – | –

— patent US4666908A, “5-Substituted pyrazolo[4,3-d]pyrimidine-7-ones and methods of use” (Warner-Lambert Company, priority 1985, dated 1987)
